Data taken from ChEMBL document CHEMBL5346971, “Discovery of the First Irreversible HDAC6 Isoform Selective Inhibitor with Potent Anti-Multiple Myeloma Activity” (J Med Chem, 2023).
Activity calls are given as the source filed them. No cut-off for these calls is given here.

Columns and labels:
RPMI-8226 [1] = assay: Antiproliferative activity against human RPMI-8226 cells assessed as inhibition of cell proliferation incubated for 48 hrs by CCK8 assay; format: functional, cell-based; settings: RPMI-8226, 48 h
U-266 = assay: Antiproliferative activity against human U-266 cells assessed as inhibition of cell proliferation incubated for 48 hrs by CCK8 assay; format: functional, cell-based; settings: U-266, 48 h
MM1.S = assay: Antiproliferative activity against human MM1.S cells assessed as inhibition of cell proliferation incubated for 48 hrs by CCK8 assay; format: functional, cell-based
[2] = Cytotoxicity against human L02 cells assessed as inhibition of cell proliferation incubated for 48 hrs by CCK8 assay; format: toxicity, cell-based
RPMI-8226 [3] = assay: Induction of apoptosis in human RPMI-8226 cells assessed as proportion of viable cells at 0.5 uM incubated for 24 hrs by AnnexinV-FITC/PI staining based flow cytometry (reference value: 84.71%); format: functional, cell-based
RPMI-8226 [4] = assay: Induction of apoptosis in human RPMI-8226 cells assessed as proportion of early apoptotic cells at 0.5 uM incubated for 24 hrs by AnnexinV-FITC/PI staining based flow cytometry (reference value: 10.63%); format: functional, cell-based
RPMI-8226 [5] = assay: Induction of apoptosis in human RPMI-8226 cells assessed as proportion of late apoptotic cells at 0.5 uM incubated for 24 hrs by AnnexinV-FITC/PI staining based flow cytometry (reference value: 4.18%); format: functional, cell-based
RPMI-8226 [6] = assay: Induction of apoptosis in human RPMI-8226 cells assessed as proportion of necrotic cells at 0.5 uM incubated for 24 hrs by AnnexinV-FITC/PI staining based flow cytometry (reference value: 0.49%); format: functional, cell-based
RPMI-8226 [7] = assay: Induction of apoptosis in human RPMI-8226 cells assessed as proportion of viable cells at 2.5 uM incubated for 24 hrs by AnnexinV-FITC/PI staining based flow cytometry (reference value: 84.71%); format: functional, cell-based
RPMI-8226 [8] = assay: Induction of apoptosis in human RPMI-8226 cells assessed as proportion of early apoptotic cells at 2.5 uM incubated for 24 hrs by AnnexinV-FITC/PI staining based flow cytometry (reference value: 10.63%); format: functional, cell-based
RPMI-8226 [9] = assay: Induction of apoptosis in human RPMI-8226 cells assessed as proportion of late apoptotic cells at 2.5 uM incubated for 24 hrs by AnnexinV-FITC/PI staining based flow cytometry (reference value: 4.18%); format: functional, cell-based
RPMI-8226 [10] = assay: Induction of apoptosis in human RPMI-8226 cells assessed as proportion of necrotic cells at 2.5 uM incubated for 24 hrs by AnnexinV-FITC/PI staining based flow cytometry (reference value: 0.49%); format: functional, cell-based
RPMI-8226 [11] = assay: Induction of cell cycle arrest in human RPMI-8226 cells assessed as proportion of cells at G1 phase at 2.5 uM incubated for 24 hrs by PI staining based flow cytometry (reference value: 33.5%); format: functional
RPMI-8226 [12] = assay: Induction of cell cycle arrest in human RPMI-8226 cells assessed as proportion of cells at S phase at 2.5 uM incubated for 24 hrs by PI staining based flow cytometry (reference value: 46.7%); format: functional
RPMI-8226 [13] = assay: Induction of cell cycle arrest in human RPMI-8226 cells assessed as proportion of cells at G2/M phase at 2.5 uM incubated for 24 hrs by PI staining based flow cytometry (reference value: 19.8%); format: functional
RPMI-8226 [14] = assay: Antitumor activity against human RPMI-8226 cells xenografted in NCG mouse assessed as T/C ratio at 50 ug administered intratumorally every 2 days by vernier caliper analysis; format: functional; settings: dose 50 µg; route it(Intratumoral)
RPMI-8226 [15] = assay: Antitumor activity against human RPMI-8226 cells xenografted in NCG mouse assessed as tumor growth inhibition at 50 ug administered intratumorally every 2 days by vernier caliper analysis; format: functional; settings: dose 50 µg; route it(Intratumoral)
[16] = Toxicity in NCG mouse xenografted with human RPMI-8226 cells assessed as body weight loss at 50 ug administered intratumorally every 2 days; settings: in vivo, other, 48 h, route it(Intratumoral), dose 50 µg
[17] = Toxicity in NCG mouse xenografted with human RPMI-8226 cells assessed as animal's death at 50 ug administered intratumorally every 2 days; settings: in vivo, other, 48 h, route it(Intratumoral), dose 50 µg
[18] = Toxicity in NCG mouse xenografted with human RPMI-8226 cells assessed as weakness at 50 ug administered intratumorally every 2 days; settings: in vivo, other, 48 h, route it(Intratumoral), dose 50 µg

Q: Which IC50 (RPMI-8226 [1]) does the source give for O=C(CCCCCCNC(=O)c1cnc(N(c2ccccc2)c2ccccc2Cl)nc1)NO [CITARINOSTAT] here?
A: 3.5 µM

Q: And the IC50 (U-266)?
A: 4.3 µM

Q: And the IC50 (MM1.S)?
A: 2 µM

Q: What about the IC50 at 48 h [2] of the same compound?
A: 15.2 µM

Q: What about the Activity (RPMI-8226 [3]) of the same compound?
A: Active

Q: What about the Activity (RPMI-8226 [4]) of the same compound?
A: Active

Q: What about the Activity (RPMI-8226 [5]) of the same compound?
A: Active

Q: And the Activity (RPMI-8226 [6])?
A: Active

Q: What about the Activity (RPMI-8226 [7]) of the same compound?
A: Active

Q: And the Activity (RPMI-8226 [8])?
A: Active

Q: What about the Activity (RPMI-8226 [9]) of the same compound?
A: Active

Q: What about the Activity (RPMI-8226 [10]) of the same compound?
A: Active

Q: And the Activity (RPMI-8226 [11])?
A: 32.7%

Q: And the Activity (RPMI-8226 [12])?
A: 44.7%

Q: And the Activity (RPMI-8226 [13])?
A: 22.6%

Q: And the T/C (RPMI-8226 [14])?
A: 61%

Q: What about the TGI (RPMI-8226 [15]) of the same compound?
A: 46%

Q: What about the Activity [16] of the same compound?
A: Non-Toxic

Q: What about the Activity [17] of the same compound?
A: Toxic

Q: What about the Activity [18] of the same compound?
A: Toxic
